Biological target: T1, Human CYP2C8 (Homo sapiens, UniProt P10632)
T1 construct: E. coli-expressed liver microsome CYP2C8 (Cypex, 30 μmol/L); purchased Cypex; host or cells: E. coli
T1 sequence (P10632 1-490): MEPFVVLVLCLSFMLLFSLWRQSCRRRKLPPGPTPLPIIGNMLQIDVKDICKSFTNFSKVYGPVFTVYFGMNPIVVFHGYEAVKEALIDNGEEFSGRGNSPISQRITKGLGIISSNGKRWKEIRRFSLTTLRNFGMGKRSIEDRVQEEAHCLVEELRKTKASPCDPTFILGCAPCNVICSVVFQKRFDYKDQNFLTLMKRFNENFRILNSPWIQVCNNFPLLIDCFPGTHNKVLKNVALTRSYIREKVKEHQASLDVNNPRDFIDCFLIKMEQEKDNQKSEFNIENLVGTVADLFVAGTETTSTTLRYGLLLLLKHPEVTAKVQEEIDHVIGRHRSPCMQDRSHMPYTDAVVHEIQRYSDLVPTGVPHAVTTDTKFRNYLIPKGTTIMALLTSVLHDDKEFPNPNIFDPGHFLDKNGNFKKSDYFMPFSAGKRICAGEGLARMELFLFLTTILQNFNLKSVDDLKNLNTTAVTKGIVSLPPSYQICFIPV
Assay: Inhibitory activity of drug-metabolizing enzyme (human CYP2C8 inhibition effect)
Type: in vitro ADME
Settings: E. coli-expressed CYP2C8, substrate Luciferin-ME, from inhibition rates at 1 and 10 μmol/L
Experimental: Biological Example 4: Measurement of Inhibitory Activity of Drug-Metabolizing Enzyme (Human CYP2C8 Inhibition Effect)
The reaction was carried out in a 384-well plate. As the positive control substance (CYP2C8: quercetin), a solution, which had been adjusted with DMSO to have 300 times higher concentration than the final concentration (CYP2C8: 22.5 and 225 μmol/L) and been 75-fold diluted with purified water containing 2.7% acetonitrile, was prepared (CYP2C8: 0.3 and 3 μmol/L). The test compounds were prepared to have a concentration of […] with DMSO, and then 75-fold diluted with purified water containing 2.7% acetonitrile to be 4 and 40 μmol/L. Then, a reaction mixture solution was prepared by addition of a potassium phosphate buffer (pH 7.4), magnesium chloride ([…]), substrate (CYP2C8: Luciferin-ME, 150 μmol/L), and E. coli-expressed liver microsome CYP2C8 (Cypex, 30 μmol/L) (the numerical values are final concentrations). The reaction was started by addition of 8 μL of this reaction mixture, 4 μL each of the test compound and the positive control solution which had been prepared as described above, and 4 μL of NADPH production system solution (5.2 mM NADP, 13.2 mM glucose-6-phosphate, 1.6 U/mL glucose-6-phosphate dehydrogenase) and incubation was carried out at 37° C. for 30 min. Thereafter, 16 μL of luciferase solution was added to stop the reaction and to allow luciferin to emit light, and the luminescence intensity of the reaction solution was measured. The inhibition rate is a reduction rate (inhibition rate) of the luminescence intensity when compared with the control in which the reaction was carried out by the addition of DMSO in place of the test compound solution. The inhibition rate was calculated from the following mathematical formula. Inhibition rate (%)=100−{(luminescence intensity of test compound−background luminescence intensity)/(luminescence intensity of control−background luminescence intensity)×100} [Math. 3]
The IC50 value was defined to be <1 μM when the inhibition rate at 1 μmol/L was not less than 50%; and >10 μM when the inhibition rate at 10 μmol/L was not more than 50%. The range between the above-mentioned range (not more than 50% at 1 μmol/L and not less than 50% at 10 μmol/L) was calculated using the following mathematical formula: IC50=(50−b)/a [Math.4] wherein a and b are the slope and intercept of the linear regression line: y=ax+b that passes through the two points: the concentration and the inhibition rate at 1 μmol/L and the concentration and the inhibition rate at 10 μmol/L.
The IC50 values of the comparative compounds and compounds of the present invention were measured using the measurement method described above.

Compound | IC50 [µM]
O=C1CCCc2c1cc(C(=O)Nc1ccc(Oc3ccnc4cc(OCCCN5CCOCC5)ccc34)cn1)c(=O)n2-c1ccccc1 [Example 17(2), N-[5-({7-[3-(4-morpholinyl)propoxy]-4-quinolinyl}oxy)-2-pyridinyl]2,5-dioxo-1-phenyl-1,2,5,6,7,8-hexahydro-3-quinolinecarboxamide] | > 10
COc1cc2nccc(Oc3ccc(NC(=O)c4cc5c(n(-c6ccccc6)c4=O)CCCC5=O)nc3)c2cc1OC [Example 5, N-{5-[(6,7-dimethoxy-4-quinolinyl)oxy]-2-pyridinyl}-2,5-dioxo-1-phenyl-1,2,5,6,7,8-hexahydro-3-quinolinecarboxamide] | > 10
COc1cc2nccc(Oc3ccc(NC(=O)c4cc5c(n(-c6ccccc6)c4=O)CCCC5=O)c(C)c3)c2cc1OC [Example 23(2), N-{4-[(6,7-dimethoxy-4-quinolinyl)oxy]-2-methylphenyl}-2,5-dioxo-1-phenyl-1,2,5,6,7,8-hexahydro-3-quinolinecarboxamide] | > 10
COc1cc2nccc(Oc3ccc(NC(=O)c4cc5c(n(-c6ccccc6)c4=O)CC(C)(C)CC5=O)nc3)c2cc1OC [Example 5(1), N-{5-[(6,7-dimethoxy-4-quinolinyl)oxy]-2-pyridinyl}-7,7-dimethyl-2,5-dioxo-1-phenyl-1,2,5,6,7,8-hexahydro-3-quinolinecarboxamide] | > 10
